What was measured:
Acetylcholinesterase [1] = target: T1, Acetylcholinesterase (Homo sapiens, UniProt P22303); assay: Inhibition of human recombinant AChE-induced amyloid beta (1-40) aggregation assessed as fibril formation after 24 hrs by thioflavin T-based fluorometric assay
Acetylcholinesterase [2] = target: T1, Acetylcholinesterase; assay: Inhibition of human recombinant AChE using acetylthiocholine iodide as substrate after 20 mins preincubation by Ellman method

T1 sequence (P22303 whole entry): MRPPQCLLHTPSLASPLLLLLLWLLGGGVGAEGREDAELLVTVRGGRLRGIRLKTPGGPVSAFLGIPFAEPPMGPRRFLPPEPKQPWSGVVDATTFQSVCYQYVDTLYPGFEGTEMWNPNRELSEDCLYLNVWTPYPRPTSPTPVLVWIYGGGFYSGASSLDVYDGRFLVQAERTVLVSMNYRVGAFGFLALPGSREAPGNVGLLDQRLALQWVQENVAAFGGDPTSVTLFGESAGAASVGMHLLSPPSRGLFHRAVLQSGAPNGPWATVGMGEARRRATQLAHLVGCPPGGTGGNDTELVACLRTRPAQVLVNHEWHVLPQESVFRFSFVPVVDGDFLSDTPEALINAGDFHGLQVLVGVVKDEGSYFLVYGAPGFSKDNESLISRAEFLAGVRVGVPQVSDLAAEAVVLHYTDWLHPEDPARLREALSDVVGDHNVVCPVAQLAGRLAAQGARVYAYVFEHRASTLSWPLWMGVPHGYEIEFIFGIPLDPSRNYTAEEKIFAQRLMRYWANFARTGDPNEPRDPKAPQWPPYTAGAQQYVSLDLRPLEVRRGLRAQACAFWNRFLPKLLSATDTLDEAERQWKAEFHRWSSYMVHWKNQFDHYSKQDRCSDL

`CCN(CCCCCC=Nc1cc(O)c2ccccc2c1O)Cc1ccccc1OC` gave an IC50 (Acetylcholinesterase [1]) of 45 µM and an IC50 (Acetylcholinesterase [2]) of 45 µM.

Reference: BindingDB's records for doi:10.1021/jm200691d (University of Bologna, 2011)
